This is an account of results in patent US20160113905A1, “Polymer composition and polymer material” (INDUSTRIAL TECHNOLOGY RESEARCH INSTITUTE, priority 2012, published 2016).

Several values for one entry are separate records, joined by “and”; a condition that tells them apart may be missing. Equal entries are not always repeated.

For one assay, the target named is T1, matrix metalloproteinase-9 (Homo sapiens, UniProt P14780).
T1 sequence (P14780 107-707 limits assumed, species assumed): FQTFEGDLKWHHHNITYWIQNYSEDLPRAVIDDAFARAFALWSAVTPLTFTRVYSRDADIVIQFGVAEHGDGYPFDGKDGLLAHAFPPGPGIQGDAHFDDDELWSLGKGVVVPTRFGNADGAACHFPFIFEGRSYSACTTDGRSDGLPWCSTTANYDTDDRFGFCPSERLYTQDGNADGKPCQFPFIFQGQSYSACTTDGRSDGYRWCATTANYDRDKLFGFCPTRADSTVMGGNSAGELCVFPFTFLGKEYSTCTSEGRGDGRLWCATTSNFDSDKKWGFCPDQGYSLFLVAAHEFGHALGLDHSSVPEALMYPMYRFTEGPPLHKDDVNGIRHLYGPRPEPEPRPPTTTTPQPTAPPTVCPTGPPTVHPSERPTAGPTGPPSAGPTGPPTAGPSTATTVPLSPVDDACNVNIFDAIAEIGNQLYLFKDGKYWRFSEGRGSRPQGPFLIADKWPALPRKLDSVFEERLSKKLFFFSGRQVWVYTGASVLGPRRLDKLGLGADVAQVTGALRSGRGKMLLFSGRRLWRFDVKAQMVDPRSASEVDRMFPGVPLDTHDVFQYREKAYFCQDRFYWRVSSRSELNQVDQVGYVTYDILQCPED
Assay: not given
Broadly, the inhibition is the share of the control response that was lost under treatment. Read a high inhibition as a response far below the control. On to “histidine grafted-hydroxypropyl methylcellulose derivative [Lot 7]”, for which the inhibition amounted to 36.4%.

“histidine grafted-poly(ethylene vinyl-co-alcohol) derivative [Lot 3]” showed an inhibition of 43.7%.

The compound `CC(C)(C)OC(=O)N[C@@H](Cc1c[nH]cn1)C(=O)O` [BocHis, Boc-histidine, reference compound] registered an inhibition of 76.8%.

Compound “histidine grafted-polyvinyl alcohol derivative [Lot 2]” returned an inhibition of 41%.

Regarding “histidine grafted-hydroxypropyl methylcellulose derivative [Lot 6]”, the inhibition was 42.4% and 37.3%.

“histidine grafted-hydroxypropyl methylcellulose derivative [Lot 5]” had an inhibition of 33.2%.

“histidine grafted-poly(ethylene vinyl-co-alcohol) derivative [Lot 4]” yielded an inhibition of 38.2%.

The target of a further assay is T1, matrix metalloproteinase-9.
Assay: not given
The source holds these as a separate data set.
Regarding “histidine grafted-poly(ethylene vinyl-co-alcohol) derivative [EVOH-g-BocHis]”, the inhibition was 26.2% and 22.9%.

A further assay concerns the target T1, matrix metalloproteinase-9. Description: Inhibition test of matrix metalloproteinase-9 activity (fluorogenic substrate, activated pro-MMP-9).
Description: Step 1: Activation of Pro-Matrix Metalloproteinase-9
100 nM APMA (final concentration 1 M) as added to a 10 μg/ml of pro-matrix metalloproteinase-9 solution (R&D), and reacted in a 37° C. incubator for 2 hours to convert pro matrix metalloproteinase-9 to activated pro-matrix metalloproteinase-9
The activated pro-matrix metalloproteinase-9 was diluted with matrix metalloproteinase-9 activity analysis buffer (50 mM Tris, 10 mM CaCl2, 150 mM NaCl, 0.05% Brij-35(w/v), pH 7.5) to a concentration of 10 ng/ml. Activated pro-matrix metalloproteinase-9 was added to each test sample and placed in a 37° C. incubator for reaction for 2 or 24 hours. The negative control group contained no activated pro-matrix metalloproteinase-9 solution to test the response of the sample, and positive control added metalloproteinase-9 activity inhibitor, 1,10-Phenanthroline (1,10-PT) (final concentration: 0.1 mM), to the activated pro-matrix metalloproteinase-9 solution.
Step 3: Analysis for Matrix Metalloproteinase-9
The activated pro-matrix metalloproteinase-9 solution after being reacted with the material was taken in a 96-well black plate. Equal volume of substrate for matrix metalloproteinase-9 was added to the 96-well black plate and reacted in a 37° C. incubator for 0.5-1 hour, and then the fluorescence (Ex/Em=320/405 nm) of the reaction was determined by a high sensitivity fluorescence reader (Flexstation3).
In general, IC50 refers to the concentration needed to halve the response being measured. A higher IC50 goes with weaker potency. `CC(C)(C)OC(=O)N[C@@H](Cc1c[nH]cn1)C(=O)O` [BocHis, Boc-histidine, reference compound] showed a half-maximal inhibitory concentration (IC50) of 10.3 mM. This counts as millimolar.
